Measurements as given in patent publication US20060141486A1, “Porous substrates and arrays comprising the same” (priority 2004, published 2006).
Values belong to the compound of their own block, whether it stands above or below them.

Columns and labels:
Test in all cases: GPCR array binding assay on flow-through microplate with GAPS porous substrate
[1] = target: T1, human muscarinic receptor subtype 2 (M2) (Homo sapiens, UniProt P08172)
T1 sequence (P08172 1-466): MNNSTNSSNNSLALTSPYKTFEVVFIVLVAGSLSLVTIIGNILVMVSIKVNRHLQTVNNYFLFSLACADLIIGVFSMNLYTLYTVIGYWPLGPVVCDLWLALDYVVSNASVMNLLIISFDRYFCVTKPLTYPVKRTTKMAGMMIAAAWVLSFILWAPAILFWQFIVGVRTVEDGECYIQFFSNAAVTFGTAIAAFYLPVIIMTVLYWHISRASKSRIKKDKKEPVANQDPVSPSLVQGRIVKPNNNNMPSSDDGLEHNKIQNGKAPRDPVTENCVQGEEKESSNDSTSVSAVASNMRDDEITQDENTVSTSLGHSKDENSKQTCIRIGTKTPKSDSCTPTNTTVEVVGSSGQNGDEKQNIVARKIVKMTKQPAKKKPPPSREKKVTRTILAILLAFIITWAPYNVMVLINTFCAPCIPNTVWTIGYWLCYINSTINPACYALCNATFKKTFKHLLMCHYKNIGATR
Method: (§1) 96 patches of silica-based porous substrate (GAPS™, Corning Inc.) were screen printed onto a 1737 glass support plate, and sintered at 695° C. The glass support was pre-fabricated by sand blasting to generate 192 microchannels. Under each porous patch, there are two microchannels which provide access to the porous patch from the opposite side of the glass support. Human muscarinic receptor subtype 1 (M1), delta opioid receptor subtype 2 (delta2), and muscarinic receptor subtype 2 (M2) were printed onto the GAPS™-porous substrate with a configuration such that each receptor was aligned in one column with four replicates (i.e., columns 1, 2 and 3 for M1, delta2 and M2 receptors, respectively; see FIG. 4A). […] After one hour incubation, a vacuum force was applied to remove the assay solution and the sequential washing solution before the array was finally being dried.

[2] = target: T2, human muscarinic receptor subtype 1 (M1) (Homo sapiens, UniProt P11229)
T2 sequence (P11229 1-460): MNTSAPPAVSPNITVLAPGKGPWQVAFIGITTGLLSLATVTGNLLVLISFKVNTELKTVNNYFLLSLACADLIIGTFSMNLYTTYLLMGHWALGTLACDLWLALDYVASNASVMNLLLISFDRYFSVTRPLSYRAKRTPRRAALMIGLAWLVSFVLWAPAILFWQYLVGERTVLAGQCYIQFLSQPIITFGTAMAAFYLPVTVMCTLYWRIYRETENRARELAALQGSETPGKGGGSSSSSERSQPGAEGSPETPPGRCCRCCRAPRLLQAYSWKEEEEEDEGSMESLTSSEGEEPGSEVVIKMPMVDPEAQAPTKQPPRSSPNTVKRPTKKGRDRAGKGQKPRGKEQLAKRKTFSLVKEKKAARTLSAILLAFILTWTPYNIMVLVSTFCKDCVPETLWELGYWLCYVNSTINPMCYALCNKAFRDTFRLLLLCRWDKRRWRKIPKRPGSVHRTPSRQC
Method: as §1

[3] = target: human delta opioid receptor subtype 2 (delta2) (Homo sapiens, UniProt P41143); settings: 4 nM Cy5-naltrexone in cocktail of labeled ligands, one hour incubation, FIG. 4A
human delta opioid receptor subtype 2 (delta2), sequence (P41143 whole entry): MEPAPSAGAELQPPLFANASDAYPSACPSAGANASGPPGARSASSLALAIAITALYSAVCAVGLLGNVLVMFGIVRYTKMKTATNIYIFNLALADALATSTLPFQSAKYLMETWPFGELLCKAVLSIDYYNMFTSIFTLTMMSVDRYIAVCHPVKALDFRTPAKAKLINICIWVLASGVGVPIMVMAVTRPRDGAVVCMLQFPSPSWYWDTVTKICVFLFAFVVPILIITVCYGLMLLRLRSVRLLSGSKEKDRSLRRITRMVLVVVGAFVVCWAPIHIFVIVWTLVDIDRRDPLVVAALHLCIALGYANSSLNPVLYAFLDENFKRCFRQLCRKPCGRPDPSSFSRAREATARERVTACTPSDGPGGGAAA
Method: as §1

[4] = unlabeled telenzepine 2 μM (with naltrexone 4 μM), FIG. 4B
[5] = 2 nM Cy3B-telenzepine in cocktail of labeled ligands, one hour incubation, FIG. 4A

inhibition of Cy3B-telenzepine binding to M2 receptor by unlabeled compound [1, 4]: inhibited
inhibition of Cy3B-telenzepine binding to M1 receptor by unlabeled compound [2, 4]: inhibited
Compound: Cc1scc2c1N(C(=O)CN1CCN(C)CC1)c1ccccc1NC2=O [telenzepine]

Compound: Cy3B-telenzepine
binding of labeled ligand to M2 receptor microspots (fluorescence) [1, 5]: Weak binding signals
binding of labeled ligand to M1 receptor microspots (fluorescence) [2, 5]: strong binding

Compound: Cy5-naltrexone
binding of labeled ligand to delta2 receptor microspots (fluorescence) [3]: strong binding
